Assays:
[1] = system: bcr3-abl2 peptide-specific CD4^+ T cell clones; assay: Proliferative assay of bcr3-abl2 peptide-specific CD4+ T cell clones ([3H] thymidine incorporation); assay type: cell-based, BALB/c mice; settings: for [^3H] Thymidine Incorporation (c.p.m.): peptide 5 μg/ml, Table 2; for [^3H] Thymidine Incorporation (c.p.m.) / [^3H] Thymidine Incorporation (c.p.m.) after Stimulation with bcr-abl 12 peptide/proteins (μg/ml): 96-hour culture; for [^3H] Thymidine Incorporation (c.p.m.) after Stimulation with bcr3-abl2 peptide (5 μg/ml): peptides of varying lengths 5 μg/ml, 96 hour culture, Table 4; for [^3H] Thymidine Incorporation (c.p.m.) after Stimulation with bcr-abl 12 peptide/proteins (μg/ml): Table 5
Procedure: Mice (female BALB/c and C57BL/6 (B6), 6 to 8 weeks old; Jackson Laboratories, Bar Harbor, Me.) were inoculated twice at 2-week intervals by subcutaneous injection with Complete Freund's Adjuvant (Sigma Chemical Co., St. Louis, Mo.) alone or emulsified with bcr3-abl2 peptide (100 μg). Ten days after the final immunization, single cell suspensions of draining lymph nodes and spleens were prepared in medium consisting of 1:1 mixture of RPMI 1640 (Gibco Laboratories, Inc., Grand Island, N.Y.) and EHAA (Biofluids, Inc., Rockville, Md.) with 2.5×10^−5 M 2-ME, 200 U/ml penicillin, 200 U/ml streptomycin, 10 mM L-glutamine and 10% fetal calf serum. For proliferative assays, lymphocytes were cultured in 96-well plates at 2×10^5 cells per well with 4×10^5 irradiated syngeneic spleen cells (3,000 rad) and designated (total volume of 200 μl per well). Plates were incubated in a humidified atmosphere under 5% CO2 tension at 37° C. for 72 hours, and then pulsed for 18 hours with […] of [^3H]-thumidine per well. Proliferative responses of cloned T cells utilized 2×10^4 cells per well with 5×10^5 irradiated syngeneic spleen cells (3,000 rad) and designated peptide.
Lymphocytes from the draining lymph nodes of mice immunized with bcr3-abl2 peptide were cultured in 24-well culture plates at 4×10^6 cells per well with 2×10^6 irradiated syngeneic spleen cells and bcr3-abl2 peptide at 25 μg/ml (total volume 2 ml). The plates were cultured in a humidified atmosphere under 5% CO2 tension at 37° C. for 5 days then split 1:2. After 10 days, lymphocytes were restimulated at 1×10^6 lymphocytes per well in 24-well culture plates with 5×10^6 irradiated syngeneic spleen cells and peptide (25 μg/ml). Two days after the second in vitro stimulation, T cells were-plated at 0.5 cells per well in 96-well flat-bottom plates with 1×10^6 irradiated syngeneic spleen cells and rIL-2 (50 U/ml). Derived T cell clones were maintained by periodic stimulation with peptide (1 μg/ml) plus irradiated syngeneic spleen cells followed by expansion with rIL-2 (10 U/ml) every 2 weeks. T cell clones were stained with FITC-conjugated anti-Thy 1.2 (1%), or FITC-conjugated anti-Lyt2 (2%), or PE-conjugated anti-L3T4 (3%) mAbs (Becton Dickinson Immunocytochemistry Systems, Mountain View, Calif.) at 4° C. for 45 minutes.

[2] = system: spleen cells from mice immunized with p54-66[L61]; assay: Proliferative response of spleen cells from mice immunized with p54-66[L61] ras peptide; assay type: cell-based, C3H/HeN mice; settings: lymphocytes from mice immunized with p54-66[L61]; FIG. 4
Procedure: This peptide is denoted as p54-66[L61] or [L61]. C3H/HeN mice were immunized twice subcutaneously at two week intervals with Ribi adjuvant alone or adjuvant emulsified with p54-66[L61] ras peptide (100 μg). Two weeks after the final immunization, spleen cells from mice injected with adjuvant alone (open bar) or adjuvant plus p54-66[L61] ras peptide (black bar) were harvested and tested in vitro for proliferative response to the indicated p54-66 ras peptide (100 μg/ml). The peptide containing the substitution of lysine (K) for glutamine at position 61 is denoted as [K61]. The data represent the mean of triplicate determinations of the c.p.m. of incorporated ^3HTdR±S.D.

For “A F H G D A Q A L Q R P V A (AFHGDAQALQRPVA) [BCRI-abl2, 14 mer of p185 bcr-abl joining region, reference compound]”, the “[^3H] Thymidine Incorporation (c.p.m.)” value ([1]; T cell clone 1D2) was 315 c.p.m, the “[^3H] Thymidine Incorporation (c.p.m.)” value ([1]; T cell clone 2B12) was 385 c.p.m and the “[^3H] Thymidine Incorporation (c.p.m.)” value ([1]; T cell clone 2D4) was 147 c.p.m. The “[^3H] Thymidine Incorporation (c.p.m.)” value ([1]; T cell clone 2E3) was 461 c.p.m, the “[^3H] Thymidine Incorporation (c.p.m.)” value ([1]; T cell clone 2E10) was 137 c.p.m and the “[^3H] Thymidine Incorporation (c.p.m.)” value ([1]; T cell clone 3B7) was 277 c.p.m. For the same substance, the “[^3H] Thymidine Incorporation (c.p.m.)” value ([1]; T cell clone 3E11) was 398 c.p.m, the “[^3H] Thymidine Incorporation (c.p.m.)” value ([1]; T cell clone 3G2) was 583 c.p.m and the “[^3H] Thymidine Incorporation (c.p.m.)” value ([1]; T cell clone 3G3) was 351 c.p.m.
With “G F K Q S S K A L Q R P V A (GFKQSSKALQRPVA) [bcr3-abl2 14-mer peptide]” the “[^3H] Thymidine Incorporation (c.p.m.) after Stimulation with bcr3-abl2 peptide (5 μg/ml)” value ([1]; T cell clone 1D2) was 238,297 c.p.m, the “[^3H] Thymidine Incorporation (c.p.m.) after Stimulation with bcr-abl 12 peptide/proteins (μg/ml)” value ([1]; T cell clone 2E10, peptide/protein 0.04 μg/ml) was 6,303 c.p.m and the “[^3H] Thymidine Incorporation (c.p.m.) after Stimulation with bcr-abl 12 peptide/proteins (μg/ml)” value ([1]; T cell clone 2E10, peptide/protein 0.2 μg/ml) was 54,896 c.p.m. The “[^3H] Thymidine Incorporation (c.p.m.) after Stimulation with bcr-abl 12 peptide/proteins (μg/ml)” value ([1]; T cell clone 2E10, peptide/protein 1 μg/ml) was 92,970 c.p.m and the “[^3H] Thymidine Incorporation (c.p.m.) after Stimulation with bcr3-abl2 peptide (5 μg/ml)” value ([1]; T cell clone 2E10) was 170,085 c.p.m.
“G F K Q S S K A L Q R P V A S D (GFKQSSKALQRPVASD) [bcr3-abl2 16-mer]” was tested, and the “[^3H] Thymidine Incorporation (c.p.m.) after Stimulation with bcr3-abl2 peptide (5 μg/ml)” value ([1]; T cell clone 1D2) was 108,309 c.p.m and the “[^3H] Thymidine Incorporation (c.p.m.) after Stimulation with bcr3-abl2 peptide (5 μg/ml)” value ([1]; T cell clone 2E10) was 139,083 c.p.m.
With “Gln-61: p54-66 ras peptide with the normal glutamine at position 61 (DILDTAGQEEYSA; UniProt P01112 54-66, looked up, fragment)” the proliferation in vitro [2] was “not”.
In the case of “H S A T G F K Q S S K A L Q R P V A (HSATGFKQSSKALQRPVA) [bcr3-abl2 18-mer]”, the “[^3H] Thymidine Incorporation (c.p.m.) after Stimulation with bcr3-abl2 peptide (5 μg/ml)” value ([1]; T cell clone 1D2) is reported as 150,309 c.p.m and the “[^3H] Thymidine Incorporation (c.p.m.) after Stimulation with bcr3-abl2 peptide (5 μg/ml)” value ([1]; T cell clone 2E10) is reported as 224,674 c.p.m.
With “I V H S A T G F K Q S S (IVHSATGFKQSS) [bcr3, reference compound]” the “[^3H] Thymidine Incorporation (c.p.m.)” value ([1]; T cell clone 1D2) was 294 c.p.m, the “[^3H] Thymidine Incorporation (c.p.m.)” value ([1]; T cell clone 2B12) was 461 c.p.m and the “[^3H] Thymidine Incorporation (c.p.m.)” value ([1]; T cell clone 2D4) was 133 c.p.m. For the same substance, the “[^3H] Thymidine Incorporation (c.p.m.)” value ([1]; T cell clone 2E3) was 193 c.p.m, the “[^3H] Thymidine Incorporation (c.p.m.)” value ([1]; T cell clone 2E10) was 667 c.p.m and the “[^3H] Thymidine Incorporation (c.p.m.)” value ([1]; T cell clone 3B7) was 462 c.p.m. The “[^3H] Thymidine Incorporation (c.p.m.)” value ([1]; T cell clone 3E11) was 305 c.p.m, the “[^3H] Thymidine Incorporation (c.p.m.)” value ([1]; T cell clone 3G2) was 461 c.p.m and the “[^3H] Thymidine Incorporation (c.p.m.)” value ([1]; T cell clone 3G3) was 190 c.p.m. The “response of bcr3-abl2 peptide-specific T cell clones (in words)” value ([1]; proliferative assay with irradiated syngeneic APC) was “failed to respond”.
“IVHSATGFKQSSKALQRPVASD (IVHSATGFKQSSKALQRPVASD) [bcr3-abl2 22-mer]” was tested, and the “[^3H] Thymidine Incorporation (c.p.m.) after Stimulation with bcr3-abl2 peptide (5 μg/ml)” value ([1]; T cell clone 1D2) was 21,208 c.p.m and the “[^3H] Thymidine Incorporation (c.p.m.) after Stimulation with bcr3-abl2 peptide (5 μg/ml)” value ([1]; T cell clone 2E10) was 29,509 c.p.m.
With “L T I N K E E A L Q R P (LTINKEEALQRP) [bcr2-abl2, 12 mer of p210 joining region, bcr exon 2 fused to c-abl exon 2, reference compound]” the “[^3H] Thymidine Incorporation (c.p.m.)” value ([1]; T cell clone 1D2) was 274 c.p.m, the “[^3H] Thymidine Incorporation (c.p.m.)” value ([1]; T cell clone 2B12) was 341 c.p.m and the “[^3H] Thymidine Incorporation (c.p.m.)” value ([1]; T cell clone 2D4) was 143 c.p.m. The “[^3H] Thymidine Incorporation (c.p.m.)” value ([1]; T cell clone 2E3) was 402 c.p.m, the “[^3H] Thymidine Incorporation (c.p.m.)” value ([1]; T cell clone 2E10) was 287 c.p.m and the “[^3H] Thymidine Incorporation (c.p.m.)” value ([1]; T cell clone 3B7) was 349 c.p.m. The “[^3H] Thymidine Incorporation (c.p.m.)” value ([1]; T cell clone 3E11) was 299 c.p.m, the “[^3H] Thymidine Incorporation (c.p.m.)” value ([1]; T cell clone 3G2) was 478 c.p.m and the “[^3H] Thymidine Incorporation (c.p.m.)” value ([1]; T cell clone 3G3) was 217 c.p.m.
With “Leu-61 peptide: 13 residues 54-66 of ras p21 with leucine for glutamine at position 61 (DILDTAGLEEYSA; UniProt P01112 54-66, looked up, fragment Q61L)” the proliferation in vitro [2] was “proliferate in vitro”.
For “Lys-61: p54-66 ras peptide with lysine for glutamine at position 61 (DILDTAGKEEYSA; UniProt P01112 54-66, looked up, fragment Q61K)”, the proliferation in vitro [2] was “not”.

Source: patent US20040235070A1, “Immune reactivity to expressed activated oncogenes for diagnosis and treatment of malignancy” (Washington Research Foundation, priority 1990, published 2004)
